Converted amounts (≈) assume the structure as drawn. The source made the active and inactive calls. No cut-off for these calls is given here.
What was measured:
[1] = system: MKN-45; experiment: Inhibition of human MKN-45 cells colony formation incubated for 10 days by crystal violet staining based assay; format: functional, cell-based; conditions: dose 50-100 nM, time 10.0 day
[2] = Toxicity in BALB/c mouse assessed as change in liver morphology at 15 to 30 mg/kg, ip measured every 3 days for 21 days by HE staining based assay; format: organism-based; conditions: in vivo, 504 h, dose 15-30 mg/kg, time 21 day
[3] = target: Cytochrome P450 2C19 (Homo sapiens, UniProt P33261); experiment: Inhibition of CYP2C19 in human liver microsomes; format: ADME, Microsome
[4] = system: MFC; experiment: Antiproliferative activity against MFC cells incubated for 48 hrs by SRB assay; format: functional, cell-based; conditions: Mus musculus
[5] = system: MKN-45; experiment: Induction of apoptosis in human MKN-45 cells assessed as late apoptotic cells at 800 nM incubated for 48 hrs by Annexin V-FITC/PI staining based flow cytometry analysis (reference value: 2.6%); format: functional
[6] = AUC(0 to t) in ICR mouse at 1 mg/kg, iv; format: ADME, organism-based; set-up: dose 1 mg/kg, route iv; conditions: in vivo
[7] = Oral bioavailability in ICR mouse at 10 mg/kg; format: ADME, organism-based; conditions: in vivo
[8] = target: T1, Myoferlin (Homo sapiens, UniProt Q9NZM1); experiment: Binding affinity to MYOF in human MKN45 cells at 50 to 100 uM incubated for 1 hr by CETSA; format: cell-based; conditions: MKN-45, dose 50-100 µM
[9] = system: MKN-45; experiment: Antitumor activity against human MKN-45 cells xenografted in BALB/c mouse assessed as tumor growth inhibition at 15 mg/kg/day, ip measured every 3 days for 21 days; format: functional; conditions: MKN-45, 504 h, time 21 day, read-out: TGI
[10] = target: Cytochrome P450 3A4 (Homo sapiens, UniProt P08684); experiment: Inhibition of CYP3A4 in human liver microsomes; format: ADME, Microsome
[11] = Cmax in ICR mouse at 1 mg/kg, iv; format: ADME, organism-based; set-up: dose 1 mg/kg, route iv; conditions: in vivo
[12] = system: AGS; experiment: Antiproliferative activity against human AGS cells incubated for 48 hrs by SRB assay; format: functional, cell-based
[13] = Mean residence time in ICR mouse at 10 mg/kg, po; format: ADME, organism-based; conditions: in vivo
[14] = system: MKN-45; experiment: Induction of apoptosis in human MKN-45 cells assessed as early apoptotic cells at 800 nM incubated for 48 hrs by Annexin V-FITC/PI staining based flow cytometry analysis (reference value: 0.5%); format: functional
[15] = system: MKN-45; experiment: Inhibition of epithelial mesenchymal transition in human MKN-45 cells assessed as downregulation in N-cadherin level by Western blotting analysis; format: functional, cell-based
[16] = target: Cytochrome P450 2C9 (Homo sapiens, UniProt P11712); experiment: Inhibition of CYP2C9 in human liver microsomes; format: ADME, Microsome
[17] = Volume of distribution at steady state in ICR mouse at 1 mg/kg, iv; format: ADME, organism-based; conditions: in vivo, read-out: Vdss
[18] = Aqueous solubility of compound in PBS at pH 2; format: physicochemical
[19] = system: ES-2; experiment: Antiproliferative activity against human ES2 cells incubated for 48 hrs by SRB assay; format: functional, cell-based; conditions: ES-2, 48 h
[20] = system: MKN-45; experiment: Antiproliferative activity against MYOF knocked down human MKN-45 cells incubated for 48 hrs by SRB assay; format: functional, cell-based
[21] = Cmax in ICR mouse at 10 mg/kg, po; format: ADME, organism-based; set-up: dose 10 mg/kg, route po; conditions: in vivo
[22] = system: BXPC-3; experiment: Antiproliferative activity against human BXPC-3 cells incubated for 48 hrs by SRB assay; format: functional, cell-based; conditions: BXPC-3, 48 h
[23] = AUC(0 to infinity) in ICR mouse at 10 mg/kg, po; format: ADME, organism-based; set-up: dose 10 mg/kg, route po; conditions: in vivo
[24] = system: MKN-45; experiment: Induction of apoptosis in human MKN-45 cells assessed as late apoptotic cells at 100 nM incubated for 48 hrs by Annexin V-FITC/PI staining based flow cytometry analysis (reference value: 2.6%); format: functional
[25] = system: MGC-803; experiment: Antiproliferative activity against human MGC-803 cells incubated for 48 hrs by SRB assay; format: functional, cell-based; conditions: MGC-803, 48 h
[26] = system: MKN-45; experiment: Induction of apoptosis in human MKN-45 cells assessed as early apoptotic cells at 200 nM incubated for 48 hrs by Annexin V-FITC/PI staining based flow cytometry analysis (reference value: 0.5%); format: functional
[27] = system: MKN-45; experiment: Induction of apoptosis in human MKN-45 cells assessed as late apoptotic cells at 200 nM incubated for 48 hrs by Annexin V-FITC/PI staining based flow cytometry analysis (reference value: 2.6%); format: functional
[28] = target: T1, Myoferlin; experiment: Binding affinity to MYOF C2D (unknown origin) expressed in Escherichia coli BL21(DE3) by SPR analysis
[29] = system: DU-145; experiment: Antiproliferative activity against human DU-145 cells incubated for 48 hrs by SRB assay; format: functional, cell-based; conditions: DU-145, 48 h
[30] = system: MKN-45; experiment: Induction of apoptosis in human MKN-45 cells assessed as early apoptotic cells at 100 nM incubated for 48 hrs by Annexin V-FITC/PI staining based flow cytometry analysis (reference value: 0.5%); format: functional
[31] = Toxicity in BALB/c mouse assessed as change in kidney morphology at 15 to 30 mg/kg, ip measured every 3 days for 21 days by HE staining based assay; format: organism-based; conditions: in vivo, 504 h, dose 15-30 mg/kg, time 21 day
[32] = target: Serine/threonine-protein kinase AKT (Homo sapiens) (UniProt P31751+Q9Y243+P31749); experiment: Inhibition of AKT phosphorylation in human MKN-45 cells by Western blot analysis; format: cell-based
[33] = Antiproliferative activity against HAF cells incubated for 48 hrs by SRB assay; format: functional, cell-based; conditions: Homo sapiens
[34] = Clearance in ICR mouse at 1 mg/kg, iv; format: ADME, organism-based; conditions: in vivo
[35] = Toxicity in BALB/c mouse assessed as change in heart morphology at 15 to 30 mg/kg, ip measured every 3 days for 21 days by HE staining based assay; format: organism-based; conditions: in vivo, 504 h, dose 15-30 mg/kg, time 21 day
[36] = AUC(0 to infinity) in ICR mouse at 1 mg/kg, iv; format: ADME, organism-based; set-up: dose 1 mg/kg, route iv; conditions: in vivo
[37] = Toxicity in BALB/c mouse assessed as change in body weight at 15 to 30 mg/kg, ip measured every 3 days for 21 days; format: organism-based; conditions: in vivo, 504 h, dose 15-30 mg/kg, time 21 day
[38] = Aqueous solubility of compound in PBS at pH 9; format: physicochemical
[39] = system: MKN-45; experiment: Induction of apoptosis in human MKN-45 cells assessed as early apoptotic cells at 400 nM incubated for 48 hrs by Annexin V-FITC/PI staining based flow cytometry analysis (reference value: 0.5%); format: functional
[40] = Half life in ICR mouse at 10 mg/kg, po; format: ADME, organism-based; conditions: in vivo
[41] = system: SGC-7901; experiment: Antiproliferative activity against human SGC-7901 cells incubated for 48 hrs by SRB assay; format: functional, cell-based; conditions: SGC-7901, 48 h
[42] = target: CYP1A (Homo sapiens, UniProt P04798+P05177); experiment: Inhibition of CYP1A in human liver microsomes; format: ADME, Microsome
[43] = AUC(0 to t) in ICR mouse at 10 mg/kg, po; format: ADME, organism-based; set-up: dose 10 mg/kg, route po; conditions: in vivo
[44] = Toxicity in BALB/c mouse assessed as change in lung morphology at 15 to 30 mg/kg, ip measured every 3 days for 21 days by HE staining based assay; format: organism-based; conditions: in vivo, 504 h, dose 15-30 mg/kg, time 21 day
[45] = target: hERG (KCNH2) (Homo sapiens, UniProt Q12809); experiment: Inhibition of human ERG at 40 uM relative to control; format: toxicity
[46] = system: MKN-45; experiment: Inhibition of epithelial mesenchymal transition in human MKN-45 cells assessed as downregulation in vimentin level by Western blotting analysis; format: functional, cell-based

T1 sequence (Q9NZM1 whole entry): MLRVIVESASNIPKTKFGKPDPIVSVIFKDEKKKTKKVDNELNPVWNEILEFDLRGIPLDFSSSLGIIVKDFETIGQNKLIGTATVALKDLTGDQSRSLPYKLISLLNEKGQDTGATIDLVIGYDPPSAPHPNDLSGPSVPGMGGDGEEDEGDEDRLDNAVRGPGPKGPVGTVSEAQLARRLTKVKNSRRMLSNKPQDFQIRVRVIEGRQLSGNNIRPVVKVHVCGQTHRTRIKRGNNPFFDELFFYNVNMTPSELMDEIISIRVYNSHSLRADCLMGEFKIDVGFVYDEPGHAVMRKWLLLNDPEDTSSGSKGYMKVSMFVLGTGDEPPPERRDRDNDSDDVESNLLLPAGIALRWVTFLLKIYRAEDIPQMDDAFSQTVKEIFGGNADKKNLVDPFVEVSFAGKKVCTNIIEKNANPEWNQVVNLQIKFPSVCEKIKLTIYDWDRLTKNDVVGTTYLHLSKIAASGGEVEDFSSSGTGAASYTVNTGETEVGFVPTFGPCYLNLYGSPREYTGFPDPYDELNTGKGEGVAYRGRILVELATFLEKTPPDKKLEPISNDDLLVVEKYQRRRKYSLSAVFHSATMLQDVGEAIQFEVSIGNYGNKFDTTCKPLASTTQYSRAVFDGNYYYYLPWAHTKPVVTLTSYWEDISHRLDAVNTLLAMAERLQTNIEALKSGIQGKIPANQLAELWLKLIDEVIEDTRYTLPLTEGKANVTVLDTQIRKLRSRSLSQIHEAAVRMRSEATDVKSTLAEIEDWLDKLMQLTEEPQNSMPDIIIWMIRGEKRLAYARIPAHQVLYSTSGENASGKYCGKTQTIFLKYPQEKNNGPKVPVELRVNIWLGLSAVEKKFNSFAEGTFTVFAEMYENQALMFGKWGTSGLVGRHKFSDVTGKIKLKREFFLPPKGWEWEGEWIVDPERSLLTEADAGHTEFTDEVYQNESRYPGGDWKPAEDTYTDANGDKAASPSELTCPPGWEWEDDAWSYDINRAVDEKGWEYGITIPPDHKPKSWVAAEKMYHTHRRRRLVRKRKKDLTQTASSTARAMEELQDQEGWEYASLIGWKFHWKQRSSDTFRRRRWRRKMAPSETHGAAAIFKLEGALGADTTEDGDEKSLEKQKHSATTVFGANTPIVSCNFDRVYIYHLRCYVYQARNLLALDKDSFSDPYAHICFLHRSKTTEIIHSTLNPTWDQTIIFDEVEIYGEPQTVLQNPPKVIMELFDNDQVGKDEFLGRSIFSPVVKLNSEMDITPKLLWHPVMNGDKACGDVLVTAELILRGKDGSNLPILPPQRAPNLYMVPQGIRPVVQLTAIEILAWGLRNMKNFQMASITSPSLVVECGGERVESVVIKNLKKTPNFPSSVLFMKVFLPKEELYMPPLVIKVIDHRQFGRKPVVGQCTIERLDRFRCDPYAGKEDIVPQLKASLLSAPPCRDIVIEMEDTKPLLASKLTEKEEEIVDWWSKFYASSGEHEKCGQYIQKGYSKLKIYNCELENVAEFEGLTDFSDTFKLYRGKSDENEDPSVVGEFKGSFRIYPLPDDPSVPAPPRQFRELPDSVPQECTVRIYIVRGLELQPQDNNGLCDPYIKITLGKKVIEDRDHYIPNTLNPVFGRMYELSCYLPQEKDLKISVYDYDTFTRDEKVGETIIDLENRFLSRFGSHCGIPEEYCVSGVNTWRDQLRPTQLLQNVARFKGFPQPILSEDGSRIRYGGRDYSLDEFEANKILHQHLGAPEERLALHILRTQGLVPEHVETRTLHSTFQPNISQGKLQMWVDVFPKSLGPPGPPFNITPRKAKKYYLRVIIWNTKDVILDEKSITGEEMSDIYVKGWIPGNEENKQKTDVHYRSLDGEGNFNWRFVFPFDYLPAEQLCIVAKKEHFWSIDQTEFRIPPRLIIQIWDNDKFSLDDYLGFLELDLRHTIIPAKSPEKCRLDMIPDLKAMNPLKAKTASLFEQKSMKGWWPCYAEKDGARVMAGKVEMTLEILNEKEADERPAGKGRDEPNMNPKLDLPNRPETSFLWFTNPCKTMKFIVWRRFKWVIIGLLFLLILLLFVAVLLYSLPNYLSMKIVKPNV
Cytochrome P450 3A4, sequence (P08684 whole entry): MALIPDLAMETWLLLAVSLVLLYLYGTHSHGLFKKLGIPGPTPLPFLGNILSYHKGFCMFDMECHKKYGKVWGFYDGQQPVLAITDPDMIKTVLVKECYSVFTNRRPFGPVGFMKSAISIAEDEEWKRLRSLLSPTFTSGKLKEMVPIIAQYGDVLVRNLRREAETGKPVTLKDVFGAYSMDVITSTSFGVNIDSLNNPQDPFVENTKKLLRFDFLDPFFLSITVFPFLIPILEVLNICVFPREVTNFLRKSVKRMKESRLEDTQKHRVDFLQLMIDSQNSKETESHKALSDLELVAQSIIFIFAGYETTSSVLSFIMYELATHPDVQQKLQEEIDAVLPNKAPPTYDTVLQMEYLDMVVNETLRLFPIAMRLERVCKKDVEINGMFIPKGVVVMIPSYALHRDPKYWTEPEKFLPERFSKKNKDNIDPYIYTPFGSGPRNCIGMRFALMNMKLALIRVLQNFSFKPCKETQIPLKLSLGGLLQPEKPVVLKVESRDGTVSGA
Cytochrome P450 2C9, sequence (P11712 whole entry): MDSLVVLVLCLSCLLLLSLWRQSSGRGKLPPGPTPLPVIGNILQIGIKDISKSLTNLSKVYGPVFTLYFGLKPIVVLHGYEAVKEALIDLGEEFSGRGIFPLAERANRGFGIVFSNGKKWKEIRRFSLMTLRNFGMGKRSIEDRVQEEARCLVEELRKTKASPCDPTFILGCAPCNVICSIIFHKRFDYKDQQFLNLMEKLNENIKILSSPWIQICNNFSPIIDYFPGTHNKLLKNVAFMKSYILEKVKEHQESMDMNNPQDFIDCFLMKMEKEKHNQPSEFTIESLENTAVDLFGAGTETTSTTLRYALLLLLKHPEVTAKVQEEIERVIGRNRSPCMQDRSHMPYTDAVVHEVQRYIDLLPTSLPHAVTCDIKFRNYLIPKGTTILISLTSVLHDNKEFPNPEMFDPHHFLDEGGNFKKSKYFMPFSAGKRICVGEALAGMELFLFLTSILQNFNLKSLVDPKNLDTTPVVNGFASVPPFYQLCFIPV
Cytochrome P450 2C19, sequence (P33261 whole entry): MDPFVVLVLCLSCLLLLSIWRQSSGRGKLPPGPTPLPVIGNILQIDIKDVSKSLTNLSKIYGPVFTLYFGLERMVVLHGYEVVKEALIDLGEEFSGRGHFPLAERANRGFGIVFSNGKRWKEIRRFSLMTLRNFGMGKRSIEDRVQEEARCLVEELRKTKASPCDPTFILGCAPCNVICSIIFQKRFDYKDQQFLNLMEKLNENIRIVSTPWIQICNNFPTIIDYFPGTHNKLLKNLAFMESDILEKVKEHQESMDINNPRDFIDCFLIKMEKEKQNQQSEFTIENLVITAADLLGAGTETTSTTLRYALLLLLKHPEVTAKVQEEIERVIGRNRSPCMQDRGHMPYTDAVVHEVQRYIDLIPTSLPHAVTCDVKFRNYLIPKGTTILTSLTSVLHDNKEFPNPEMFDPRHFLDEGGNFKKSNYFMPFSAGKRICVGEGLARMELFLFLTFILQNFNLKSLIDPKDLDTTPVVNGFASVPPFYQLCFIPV
hERG (KCNH2), sequence (Q12809 whole entry): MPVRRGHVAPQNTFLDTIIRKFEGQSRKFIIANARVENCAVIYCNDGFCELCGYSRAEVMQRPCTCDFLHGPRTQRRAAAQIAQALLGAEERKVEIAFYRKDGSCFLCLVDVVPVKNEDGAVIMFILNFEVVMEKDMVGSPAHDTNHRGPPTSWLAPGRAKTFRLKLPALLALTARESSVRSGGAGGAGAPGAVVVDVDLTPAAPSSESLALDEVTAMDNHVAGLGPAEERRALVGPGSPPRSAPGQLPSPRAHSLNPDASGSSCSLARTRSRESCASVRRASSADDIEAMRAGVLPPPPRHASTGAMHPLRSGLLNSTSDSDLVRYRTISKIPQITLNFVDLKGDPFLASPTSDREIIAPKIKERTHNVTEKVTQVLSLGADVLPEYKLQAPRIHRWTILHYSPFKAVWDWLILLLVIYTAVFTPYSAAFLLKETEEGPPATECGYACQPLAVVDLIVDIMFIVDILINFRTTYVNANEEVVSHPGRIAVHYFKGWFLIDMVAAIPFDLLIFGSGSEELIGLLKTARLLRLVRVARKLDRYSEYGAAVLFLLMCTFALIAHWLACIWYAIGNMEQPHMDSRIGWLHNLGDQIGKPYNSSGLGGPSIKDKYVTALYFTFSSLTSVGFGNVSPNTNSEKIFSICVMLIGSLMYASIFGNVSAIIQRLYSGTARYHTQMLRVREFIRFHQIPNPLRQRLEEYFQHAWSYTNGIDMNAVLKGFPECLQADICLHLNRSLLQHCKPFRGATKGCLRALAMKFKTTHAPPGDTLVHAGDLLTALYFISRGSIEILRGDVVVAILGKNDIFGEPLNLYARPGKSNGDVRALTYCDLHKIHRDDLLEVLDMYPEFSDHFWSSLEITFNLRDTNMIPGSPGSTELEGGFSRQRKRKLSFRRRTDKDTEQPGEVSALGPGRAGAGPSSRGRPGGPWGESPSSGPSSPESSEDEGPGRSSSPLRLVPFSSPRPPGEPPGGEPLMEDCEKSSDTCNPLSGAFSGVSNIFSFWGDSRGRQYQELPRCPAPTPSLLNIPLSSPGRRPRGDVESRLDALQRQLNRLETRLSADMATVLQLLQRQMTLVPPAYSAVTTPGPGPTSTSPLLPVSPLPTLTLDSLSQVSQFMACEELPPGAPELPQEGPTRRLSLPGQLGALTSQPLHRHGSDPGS

Structure (SMILES): CCc1nc(-c2ccc(OC)cc2)n(-c2cccc(C(=O)NCCCCn3nccn3)c2)n1
- inhibition [1]: Dose-Dependent Effect
- Activity [2]: Non-Toxic
- IC50 [3]: 18800 nM
- IC50 [4]: > 10000 nM
- Activity [5]: 40.6%
- AUC(0-t) [6]: 751 ng·h/mL
- bioavailability [7]: 65.5%
- Activity [8]: Active
- inhibition in vivo at 15 mg/kg/day [9]: 55.1%
- IC50 [10]: 35100 nM
- Cmax [11]: 1910 ng/mL
- IC50 [12]: 460 nM
- MRT [13]: 40.3 min
- Activity [14]: 13.4%
- inhibition [15]: Dose-Dependent Effect
- IC50 [16]: 14700 nM
- Vd [17]: 0.377 L/kg
- solubility [18]: 1310 µM (≈ 582 µg/mL)
- IC50 [19]: 280 nM
- Activity [20]: inactive
- Cmax [21]: 5820 ng/mL
- IC50 [22]: 130 nM
- AUC(0-inf) [23]: 4940 ng·h/mL
- Activity [24]: 2.8%
- IC50 [25]: 160 nM
- Activity [26]: 1%
- Activity [27]: 4.7%
- Kd [28]: 170 nM
- IC50 [29]: > 10000 nM
- Activity [30]: 0.6%
- Activity [31]: Non-Toxic
- inhibition [32]: Active
- IC50 [33]: > 10000 nM
- clearance [34]: 22 mL/min/kg
- Activity [35]: Non-Toxic
- AUC(0-inf) [36]: 762 ng·h/mL
- Activity [37]: Non-Toxic
- solubility [38]: 258 µM (≈ 115 µg/mL)
- Activity [39]: 12.6%
- half-life [40]: 38.4 min
- IC50 [41]: 440 nM
- IC50 [42]: > 50000 nM
- AUC(0-t) [43]: 4920 ng·h/mL
- Activity [44]: Non-Toxic
- inhibition at 40 µM [45]: 46.6%
- inhibition [46]: Dose-Dependent Effect

— ChEMBL document CHEMBL5356958, “Discovery of a Highly Potent and Selective MYOF Inhibitor with Improved Water Solubility for the Treatment of Gastric Cancer” (J Med Chem, 2023)
